According to PMC5334605, “Indolediketopiperazine Alkaloids from Eurotium cristatum EN-220, an Endophytic Fungus Isolated from the Marine Alga Sargassum thunbergii” (Marine Drugs, 2017):
In brackets after ≈: the same amount, converted by molar mass.

Legend:
[1] = tested on: brine shrimp (Artemia salina); format: in vivo; conditions: for brine shrimp lethality (LD50): Artemia salina, n.a. = no activity; for lethal activity against brine shrimp: result in words
[2] = DPPH radical scavenging assay; conditions: for DPPH radical scavenging activity (IC50): positive control ascorbic acid
[3] = tested on: Panagrellus redivivus; test: Nematicidal assay; format: in vivo; conditions: for nematicidal activity against Panagrellus redivivus: result in words; for nematicidal activity (LD50): Panagrellus redivivus, n.a. = no activity
[4] = tested on: S. aureus; test: Antimicrobial broth microdilution assay; format: cell-based, Staphyloccocus aureus; conditions: Staphylococcus aureus, read-out: MIC against S. aureus
[5] = tested on: Magnaporthe grisea; test: microbe, parasite or virus in culture; format: cell-based; conditions: Pyricularia oryzae, read-out: MIC against Magnaporthe grisea

C=CC(C)(C)c1[nH]c2c(CC=C(C)CO)cc(CC=C(C)C)cc2c1CC1NC(=O)C(C)NC1=O (centres unmarked) [Compound 3, 30-Hydroxyechinulin]
brine shrimp lethality (LD50) [1]: 138.1 µg/mL
lethal activity against brine shrimp [1]: weaklethal activities

C=CC(C)(C)c1[nH]c2c(CC=C(C)C)cc(CC=C(C)C)cc2c1C[C@@H]1NC(=O)[C@H](C)NC1=O [Compound 11, echinulin]
lethal activity against brine shrimp [1]: did not show any activity
DPPH radical scavenging activity (IC50) [2]: 13.8 µg/mL
nematicidal activity against Panagrellus redivivus [3]: did not show any activity
MIC [4]: 256 µg/mL (≈ 555 µM)

C=CC(C)(C)c1[nH]c2c(C[C@H](O)C(C)(C)O)cccc2c1/C=C1\NC(=O)[C@H](C)NC1=O [Compound 6, rubrumazine B]
MIC [5]: 64 µg/mL (≈ 150 µM)
DPPH radical scavenging activity (IC50) [2]: 28.5 µg/mL

O=C1O[C@H]([C@@H](O)CO)C(O)=C1O [Ascorbic Acid, ascorbic acid, reference compound]
DPPH radical scavenging activity (IC50) [2]: 2.0 µg/mL

C=CC(C)(C)c1[nH]c2c(CC=C(C)C)cc(CC=C(C)C)cc2c1C[C@@H]1NC(=O)C(=C)NC1=O [Compound 10, didehydroechinulin]
brine shrimp lethality (LD50) [1]: 27.1 µg/mL
lethal activity against brine shrimp [1]: potent lethal activity
DPPH radical scavenging activity (IC50) [2]: 13.3 µg/mL
nematicidal activity (LD50) [3]: 126.4 µg/mL
nematicidal activity against Panagrellus redivivus [3]: weak nematicidal effect

C=CC(C)(C)c1[nH]c2cc(CC=C(C)C)ccc2c1C=c1[nH]c(=O)c(=C)[nH]c1=O [Compound 8, neoechinulin C]
brine shrimp lethality (LD50) [1]: 70.1 µg/mL
DPPH radical scavenging activity (IC50) [2]: 12.1 µg/mL
nematicidal activity (LD50) [3]: >200 µg/mL

C=CC(C)(C)c1[nH]c2c(CC=C(C)CO)cc(CC=C(C)C)cc2c1CC1NC(=O)C(C)NC1=O (centres unmarked) [Compound 4, 29-hydroxyechinulin]
brine shrimp lethality (LD50) [1]: 140.6 µg/mL
lethal activity against brine shrimp [1]: weaklethal activities

C=CC(C)(C)c1[nH]c2ccccc2c1/C=C1\NC(=O)C(C)(OC)NC1=O (centres unmarked) [Compound 13, variecolorin H]
DPPH radical scavenging activity (IC50) [2]: 18.7 µg/mL
MIC [4]: 256 µg/mL (≈ 724 µM)

C=CC(C)(C)c1[nH]c2cc(CC=C(C)C)ccc2c1/C=C1\NC(=O)C(C)(OC)NC1=O (centres unmarked) [Compound 2, isovariecolorin I]
brine shrimp lethality (LD50) [1]: 19.4 µg/mL
lethal activity against brine shrimp [1]: potent lethal activity
DPPH radical scavenging activity (IC50) [2]: 20.6 µg/mL
nematicidal activity (LD50) [3]: 110.3 µg/mL
nematicidal activity against Panagrellus redivivus [3]: weak nematicidal effect

C=CC(C)(C)c1[nH]c2ccccc2c1/C=c1\[nH]c(=O)c(=C)[nH]c1=O [Compound 7, neoechinulin B]
brine shrimp lethality (LD50) [1]: 105.2 µg/mL
lethal activity against brine shrimp [1]: weaklethal activities
DPPH radical scavenging activity (IC50) [2]: 10.9 µg/mL
nematicidal activity (LD50) [3]: >200 µg/mL

C=CC(C)(C)c1[nH]c2c(CC=C(C)C)cc(CC=C(C)C)cc2c1C=C1NC(=O)C(C)NC1=O (centres unmarked) [Compound 12, dehydroechinulin]
lethal activity against brine shrimp [1]: did not show any activity
DPPH radical scavenging activity (IC50) [2]: 6.4 µg/mL
radical scavenging activity against DPPH radicals ([2]; result in words): potent radical scavenging activity
nematicidal activity against Panagrellus redivivus [3]: did not show any activity
MIC [4]: 256 µg/mL (≈ 557 µM)
